# Data published in patent US7205411B2, “Aminopyridine derivatives as mGluR5 antagonists” (Addex Pharmaceuticals SA, priority 2003, dated 2007).
# Structures can show the parent of a compound that is named as a salt.
row,Structure (SMILES),melting point
1,Cc1ccc(N)c(C#Cc2cccc(C#N)c2)n1.Cl,132.4 to 134 °C
2,"Cc1cc(C)c(N)c(C#Cc2cccc(Cl)c2)n1 (as salt: hydrochloride) [Example 13, (2-(3-Chloro-phenylethynyl)-4.6-dimethyl-pyridin-3-yl)amine hydrochloride]",204 °C
3,"COc1cccc(C#Cc2nc(C)ccc2N)c1 [Example 4, (2-(3-Methoxy-phenylethynyl)-6-methyl-pyridin-3-yl)amine]",165 to 166 °C
4,"Cc1ccc(N)c(C#Cc2cc(F)cc(F)c2)n1.Cl [Example 7, (2-(3,5-Difluoro-phenylethynyl)-6-methyl-pyridin-3-yl)amine hydrochloride]",212 °C (dec.)
5,"Cc1ccc(N)c(C#Cc2cncc(Cl)c2)n1.Cl [Example 10, (2-(5-Chloro-pyridin-3-ylethynyl)-6-methyl-pyridin-3-yl)amine hydrochloride]",193 °C (dec.)

# Other lines, results leading:
row,melting point,Structure (SMILES)
1,195 °C (dec.),Cc1ccc(N)c(C#Cc2cccc(Cl)c2)n1.Cl
2,122 °C (dec.),Cc1ccc(N)c(C#Cc2ccc(F)cc2)n1.Cl
3,199 to 200 °C (dec.),"Cc1ccc(N)c(C#Cc2cccc(F)c2)n1.Cl [Example 3, (2-(3-Fluoro-phenylethynyl)-6-methyl-pyridin-3-yl)amine hydrochloride]"
